Data: US20230096528A1, “Pharmaceutical Composition for Treatment or Prevention of Multiple Inflammatory disorders” (priority 2019, published 2023)

How the values were obtained:
healthy mouse = assay: Cytokine profile and routes of administration in healthy mouse (Example 6); conditions: healthy mice
diet-induced (DIO) mice = assay: Body weight study in diet-induced (DIO) mice (Example 9); assay type: in vivo, C57BL/6NTac mice
Protocol: This example provides results of a study of DA plus another compound (CQL) on body weight in diet-induced (DIO) mice. Adult C57BL/6NTac mice were fed with a high fat diet (60%). […] The study period was for 56 days+2-3 days testing period afterward. Body weight change measure 3× per week, food and water consumption on days 0, 12, 28, 42 and 56. Metabolic biomarkers were measured on days 28 and 56. Cytokine analysis on Days 28 and 56. Serum levels of GLP-1, GLP-2, and CCK at 1 h after dosing on Days 1 and 56, and at 2 h after dosing on Day 7 (dosing (>6 h fasting prior to dosing until after blood collection); and serum level of PPY on Day 56.

[1] = DA 92.4 mg/kg gavage BID, vs vehicle
[2] = DA 92.4 mg/kg gavage BID, vs vehicle, no significant difference
[3] = gavage BID (DA 92.4 mg/kg, CQL 50 mg/kg)

SMILES: CC(=O)[O-].CC[N+](CC)(CC(=O)Nc1c(C)cccc1C)Cc1ccccc1 [DA, denatonium acetate]
- Biomarker (cytokine) effects after iv dosing (healthy mouse; iv bolus QD, 1 mg/kg and 3 mg/kg (either iv dose)): no biomarker (cytokine) effects
- Side effects by route of administration (healthy mouse; seen only with iv administration (1 and 3 mg/kg QD)): toxic side effects
- Serum glucose levels (diet-induced (DIO) mice; DA 92.4 mg/kg gavage BID): did not show a significant effect
- Serum GLP-1 levels at Day 56 (diet-induced (DIO) mice; DA 92.4 mg/kg gavage BID, 1 h after dosing, vs vehicle): significantly increased
- Serum GLP-1 levels at Day 7 (diet-induced (DIO) mice; DA 92.4 mg/kg gavage BID, 2 h after dosing, vs vehicle): significantly increased
- Body weight gain at day 57 (diet-induced (DIO) mice; DA 92.4 mg/kg gavage BID, compared to vehicle and CQL): significantly reduced
- Serum CCK levels at Day 56 (diet-induced (DIO) mice; [1]): significantly increased
- Serum GLP-2 levels at Day 56 (diet-induced (DIO) mice; [1]): significantly increased
- Serum PYY levels at Day 56 (diet-induced (DIO) mice; [1]): significantly increased
- Serum insulin level at Day 28 (diet-induced (DIO) mice; [1]): significantly reduced
- Serum LDL levels at day 28 (diet-induced (DIO) mice; [2]): noticeable decrease
- Serum LDL levels at day 56 (diet-induced (DIO) mice; [2]): noticeable decrease
- Serum HbA1c level at Day 28 (diet-induced (DIO) mice; [3]): significantly reduced
- Serum HbA1c level at Day 56 (diet-induced (DIO) mice; [3]): considerably increased
- Daily water intake at Day 28 (diet-induced (DIO) mice; gavage BID (DA 92.4 mg/kg, CQL 50 mg/kg), vs vehicle): significantly increased
